The test system of data set [1] is NIH/3T3 mouse embryonic fibroblast cell line (ATCC CRL1658). The experiment in a line: MTT cytotoxicity assay. Type of data set: cell-based. The following applies: NIH3T3, tested 800 to 0.78 µg/mL, read-out: IC50 on NIH/3T3 mouse embryonic fibroblast cell lines. The source says: Toxicity is a key cause of failure at all steps of the new drug development process. The most part of safety-related problems occur at preclinical phases to predict preclinical safety liabilities earlier in the new drug development process. This approach allows to design and/or selection of better drug candidates that have more potentials to be marketed drugs. […] Cytotoxicities of selected compounds (5m, 5o, 5r, 5w, 5y, 5ab, and 5ad), displaying strong anticandidal activity and good predicted pharmacokinetics, were determined against NIH/3T3 mouse embryonic fibroblast cell lines (ATCC CRL1658).
Cytotoxicity was tested using the NIH/3T3 mouse embryonic fibroblast cell line (ATCC® CRL-1658™, London, UK). NIH/3T3 cells were incubated according to the supplier’s recommendations and they were seeded at 1 × 10^4 cells into each well of 96-well plates. MTT assay was performed as previously described. The compounds were tested in a concentration range of 800 µg/mL and 0.78 µg/mL concentrations. Percent inhibition was calculated for each concentration according to the formula below, and IC50 values were determined by plotting a concentration–response curve of inhibition percent versus compound concentrations tested.
On the technique in general: Tetrazolium assays rely on reduction of a dye to a coloured formazan, in cell work by metabolically active cells.

The subject of data set [2] is Candida species. The experiment in a line: Anticandidal broth microdilution, results summarised over all strains. Type of data set: cell-based. The following applies: summary over all four Candida strains; for MIC50: Candida, read-out: MIC50 against Candida species. The protocol:
(§1) Synthesized compounds (5a-5ad) were evaluated for anticandidal activity against C. albicans (ATCC 24433), C. krusei (ATCC 6258), C. parapsilosis (ATCC 22019) and C. [NT] 90030). MIC50 values were evaluated via fluorometric measurements, using resazurin solution [56, 57]. […] [NT] 90030). MIC readings were carried out twice for each chemical agent. The yeasts were maintained in RPMI after overnight incubation at 37 °C. The inocula of test microorganisms adjusted to match the turbidity of a MacFarland 0.5 standard tube as determined with a spectrophotometer and the final inoculum size was 0.5-2.5 × 10^5 cfu/mL for antifungal assay. Testing was carried out in RPMI at pH = 7 and the two-fold serial dilutions technique was applied. The last well on the microplates containing only inoculated broth was kept as controls and the last well with no growth of microorganism was recorded to represent the MIC50 expressed in μg/mL. For the antifungal assays, the compounds were dissolved in DMSO. […] The completed plates were incubated for 24 h. At the end of the incubation, resazurin (20 μg/mL) was added into each well to control whether the growth in wells. Then, plates were allowed to incubate for 2 h. MIC50 values were determined using a microplate reader at […].
On the technique in general: In broth dilution the organism is exposed to a series of concentrations in liquid medium.

For data set [3], the system named is ergosterol biosynthesis in C. albicans (ATCC 24433). The experiment in a line: Quantification of ergosterol level by LC-MS-MS. Type of data set: cell-based. The following applies: 0.78, 1.56 and 3.12 µg/mL, 16 h, negative control = 100%. An excerpt:
The most of therapies, planned to treat fungal infections, target in the ergosterol biosynthesis pathway or its end product, ergosterol, a membrane sterol that is unique to fungi. It is the main sterol, and thus is essential for growth and normal membrane function of fungal cell. Besides serving as a bioregulator of membrane fluidity, asymmetry and integrity, it contributes to proper function of membrane-bound enzymes. […] Total intracellular sterols were extracted as reported by Breivik and Owades. […] Ergosterol standard (Product No. 45480, Sigma-Aldrich, Darmstadt, Germany) was used for quantification of ergosterol in both inhibitor-free (negative control) and inhibitor including samples. Ergosterol quantity in negative control samples was regarded as 100%. All concentrations were analyzed in quadruplicate, and the results were expressed as mean ± standard deviation (SD) (Figure 2).
Total intracellular sterols were extracted as reported by Breivik and Owades with slight modifications. […] The cultures were incubated for 16 h with shaking at 35 °C. […] Ergosterol quantity in negative control samples was regarded as 100%. All concentrations were analyzed in quadruplicate, and the results were expressed as mean ± standard deviation (SD).

Data set [4] relates to C. albicans (ATCC 24433). The experiment in a line: Anticandidal broth microdilution (EUCAST EDef 7.1), resazurin fluorometric readout. It is filed as cell-based. The following applies: Candida albicans, ATCC24433; ATCC 24433, RPMI pH 7, 24 h incubation. The protocol: as §1
Data set [5] concerns C. krusei (ATCC 6258). The data set is described as above. It is filed as cell-based. The following applies: Pichia kudriavzevii, ATCC6258; ATCC 6258, RPMI pH 7, 24 h incubation. The protocol:
as §1

For data set [6], the system named is C. parapsilosis (ATCC 22019). Described as above. It is filed as cell-based. The following applies: Lodderomyces parapsilosis, ATCC22019; ATCC 22019, RPMI pH 7, 24 h incubation; read-out: MIC50 C. parapsilopsis. How it is done:
as §1

Data set [7] concerns C. glabrata (ATCC 90030). The description is as above. Type of data set: cell-based. The following applies: Nakaseomyces glabratus, ATCC90030; ATCC 90030, RPMI pH 7, 24 h incubation. The protocol: as §1
Data set [8] has as its system C. albicans. Put plainly: Fluorescence microscopy (Live/Dead BacLight, SYTO-9 / PI). Type of data set: cell-based. The following applies: 3.12 µg/mL (4 × MIC50), 2 h. The source says: Ergosterol is the major fungal membrane sterol that regulates membrane fluidity, plasma membrane biogenesis and functions. […] It is known that propidium iodide (PI) enters only cells with damaged membranes, while SYTO-9 marks cells with both damaged and unaffected membranes. […] Consequently, fluorescence microscopic experiments supported the findings observed in inhibition of biosynthesis of ergosterol, which is a vital sterol regulating membrane functions. The Live/Dead BacLight viability kit from Molecular Probes, Inc. (Eugene, OR, USA) was used as reported by Nobman et al.. In this assay, the SYTO-9 and PI stains are in competition to bind to fungal nucleic acid. PI enters only cells with damaged membranes, while SYTO-9 marks cells with both damaged and unaffected membranes. A culture of C. albicans was grownup to mid-log phase in 20 mL of SDB. Twenty milliliters of the yeast culture was divided into two equal parts. […] The second culture was incubated under same conditions without a compound. Both cultures were centrifuged at 3000 rpm for 10 min. and then cell pellets were incubated with PI and SYTO9 at 40 °C for 30 min. The stained yeast cultures were observed under a fluorescence microscope (Carl-Zeis, Axio Scope.A1, Göttingen, Germany) using 100× oil-immersion objective.

What is called MIC50 is an inhibitory concentration at the 50% level, which refers to growth in some studies and to a panel of isolates in others. A word on the melting point: it is the temperature of the solid-liquid transition.

Molecules are shown by their SMILES. ≈ marks a conversion by molar mass, not a printed value.

Compound `CCn1c(SCC(=O)c2ccc(F)cc2F)nnc1-c1ccc(-c2nc3ccc(F)cc3[nH]2)cc1` [Compound 5ad, 1-(2,4-Difluorophenyl)-2-((4-ethyl-5-(4-(6-fluoro-1H-benzimidazol-2-yl)phenyl)-4H-1,2,4-triazol-3-yl)thio)ethan-1-one] had a melting point of 234.2 °C. Further, in [1], the IC50 came to 120 ± 4.39 µg/mL (≈ 242 µM). The MIC50 in [2] lay within 0.78 to 1.56 µg/mL (≈ 1.58 to 3.16 µM). In addition, the “level of ergosterol in C. albicans (in words)” value in data set [3] is given as “significantly decreased the level of ergosterol at all tested concentrations”. Moreover, the MIC50 in [4] came to 0.78 µg/mL (≈ 1.58 µM). The same compound displayed an MIC50 in data set [5] of 1.56 µg/mL (≈ 3.16 µM). Moreover, in data set [6], the MIC50 was 0.78 µg/mL (≈ 1.58 µM). The same compound showed an MIC50 in data set [7] of 0.78 µg/mL (≈ 1.58 µM).
Regarding `Cn1c(SCC(=O)c2ccc(F)cc2)nnc1-c1ccc(-c2nc3ccc(F)cc3[nH]2)cc1` [Compound 5w, 2-((5-(4-(6-Fluoro-1H-benzimidazol-2-yl)phenyl)-4-methyl-4H-1,2,4-triazol-3-yl)thio)-1-(4-fluorophenyl)ethan-1-one], the IC50 in [1] was 65.3 ± 2.94 µg/mL (≈ 141 µM). In addition, the MIC50 in data set [2], in data set [4], in data set [5], in data set [6] and in data set [7] was 0.78 µg/mL (≈ 1.69 µM) each time. Further, the “MIC50 against Candida species” value in [2] lay within 0.78 to 1.56 µg/mL. Besides, in [3], the “level of ergosterol in C. albicans (in words)” value is given as “significantly decreased the level of ergosterol at all tested concentrations”. Moreover, the “effect on C. albicans cell membrane (PI penetration)” value in data set [8] was “membrane damaging effect”.

These data come from article PMC6154534, “New Benzimidazole-1,2,4-Triazole Hybrid Compounds: Synthesis, Anticandidal Activity and Cytotoxicity Evaluation” (Molecules : A Journal of Synthetic Chemistry and Natural …, 2017).
